In assay [1] the test system is DRO and ARO tumor tissues. Kind of assay: Western blot of DRO and ARO tumor tissues from athymic nude mice. It is filed as in vivo. The method, then: RhoB and p21^WAF1/CIP1 polypeptide expression also was examined in DRO and ARO tumor tissues removed from athymic nude mice following 35 days of treatment with vehicle control (−) or 0.025% RS5444 in the diet. Beta-actin was used as a normalization control to ensure even loading of total polypeptide in all lanes.
Suspensions of 1×10^6/0.1 mL DRO or ARO cells in RPMI medium were injected subcutaneously in one flank of 3 to 4 week old athymic female nude mice. Mice were changed to specialized diets 1 week after tumor implantation and randomly assigned to diets consisting of either 0.025% RS5444 or sham control (Research Diets). Mice weighed between 20-25 grams and consumed on average 4 grams of food per day (1 mg/day of RS5444). Tumors were measured every 3 to 4 days for 35 days with calipers and tumor volumes were calculated by the formula: 0.5236(a×b×c), where a is the shortest diameter, b is the diameter perpendicular to a, and c is the diameter height.
Cells were collected and lysed in RIPA buffer containing 50 mM Tris, 5 mM EDTA, 150 mM NaCl, 0.1% SDS, 0.5% Deoxycholate, 1% NP40, and protease inhibitor cocktail (Roche) followed by centrifugation. Excised tumor tissues were lysed in 50 mM Tris pH 8.0+1% SDS. Collected supernatants were, analyzed for protein concentration using Pierce's BCA assay, with 25 μg protein loaded per gel lane (Invitrogen) with later transfer to Immobilon-P membranes. The membranes were hybridized with antibodies (Santa Cruz, Cell Signaling, Sigma-Aldrich, St. Louis Mo.) as indicated overnight at 4° C. followed by treatment with species-specific horseradish peroxidase IgG (Jackson labs) for 45 minutes at room temperature. Detection was performed using Supersignal West Pico chemoluminescence kit (Pierce). Quantification of bands was performed in triplicate using Image Quant 5.2 (Molecular Dynamics, Sunnyvale Calif.).

In assay [2] the test system is DRO. The experiment in a line: ATC (DRO) tumor growth in athymic nude mice, RS5444 in diet. It is filed as in vivo. Conditions: for tumor growth inhibition: started one week prior to DRO implantation. The method, then:
RS5444 was added to the rodent diet one week prior to tumor implantation with DRO. […] Suspensions of 1×10^6/0.1 mL DRO or ARO cells in RPMI medium were injected subcutaneously in one flank of 3 to 4 week old athymic female nude mice. […] Mice weighed between 20-25 grams and consumed on average 4 grams of food per day (1 mg/day of RS5444).

The test system of assay [3] is DRO cells. The experiment in a line: Clonogenic growth of DRO cells in soft agar. It is filed as cell-based, human. Conditions: two weeks. The procedure:
The ability of RS5444 to inhibit clonogenic growth of DRO cells in soft agar was also examined (FIG. 3C). DRO cells were plated in triplicate on soft agar for colony formation and treated with the indicated doses of RS5444. Colonies were stained and counted after two weeks.

Assay [4] relates to ATC tumors implanted into athymic nude mice. Kind of assay: Affymetrix Plus 2.0 array, nucleic acid expression in DRO tumors implanted into athymic nude mice. It is filed as in vivo. The procedure:
Affymetrix Plus 2.0 arrays were used to identify nucleic acids altered between control vehicle-treated and RS5444-treated ATC cells from cell culture and tumors implanted ectopically into athymic nude mice. Cells in culture were treated with a single dose of 10 nM RS5444 for either 2, 6, or 24 hours. Animals were treated with 0.025% RS5444 after implantation of 1×10^6 DRO cells. Animals were fed a diet including 0.025% RS5444 for 35 days, and tumor volume was measured weekly. Tumor tissues were removed, RNA was isolated, and nucleic acid expression was analyzed. Examples of some nucleic acids, the expression of which was altered in both the animal derived tumors and cells in culture, are presented in Table 1. Some of the nucleic acids regulated by PPARγ in ATC cells (e.g., BMP2, MMP14, ANGPTL4, and ITGA5) are secreted polypeptides (Table 1).

The target in assay [5] is T1, PPARγ (Homo sapiens, UniProt P37231).
T1 sequence (P37231 1-505): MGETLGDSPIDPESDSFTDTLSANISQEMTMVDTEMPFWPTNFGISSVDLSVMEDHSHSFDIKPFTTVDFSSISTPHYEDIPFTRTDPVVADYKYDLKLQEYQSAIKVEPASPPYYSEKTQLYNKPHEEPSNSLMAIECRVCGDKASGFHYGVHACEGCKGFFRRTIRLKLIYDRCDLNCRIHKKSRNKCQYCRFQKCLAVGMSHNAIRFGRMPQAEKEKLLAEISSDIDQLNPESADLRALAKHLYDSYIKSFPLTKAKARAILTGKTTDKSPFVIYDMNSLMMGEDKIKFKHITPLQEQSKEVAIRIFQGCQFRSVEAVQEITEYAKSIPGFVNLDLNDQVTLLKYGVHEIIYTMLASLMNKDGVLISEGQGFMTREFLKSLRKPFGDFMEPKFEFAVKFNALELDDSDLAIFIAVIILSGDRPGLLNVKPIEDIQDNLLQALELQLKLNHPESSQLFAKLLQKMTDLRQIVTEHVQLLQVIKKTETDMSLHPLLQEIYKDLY
Kind of assay: PPAR isoform luciferase reporter in transfected RIE cells. It is filed as cell-based. Set-up: expressed in transfected cells; host or cells: RIE (rat small intestinal cell line). The settings on record: RIE cells transfected with PPARγ and PPRE3-tk-luc, 10 nM. The text has this:
Increased luciferase activity was only observed in the presence of PPARγ and PPRE3-tk-luc.

[6] abbreviates: DRO and ARO tumors, 0.025% in diet for 35 days.

Regarding `Cc1cc(Oc2ccc3nc(COc4ccc(CC5SC(=O)NC5=O)cc4)n(C)c3c2)cc(C)c1N` (stereo not drawn) [RS5444], the “RhoB polypeptide in tumors (Western blot)” value in assay [1] (ATC tumors from mice, 4 weeks of 0.025% in diet) is “elevated”. Further, in assay [1] (setting [6]), the “RhoB polypeptide expression in tumors” value was “elevated”. Moreover, the “cyclin E levels in tumors” value in assay [1] (setting [6]) is reported as “down-regulated”. The “p21WAF1/CIP1 polypeptide expression in tumors” value in assay [1] (setting [6]) is recorded as “elevated”. Besides, the tumor growth inhibition result in assay [2] (0.00025% in diet) was “No inhibition of tumor growth”; in assay [2] (0.0025% in diet), 54.5%; in assay [2] (0.025% in diet) it was 89.7%. The “mice that did not form tumors” value in assay [2] (0.025% diet group) was 5 of 10. Besides, the “inhibition of colony formation in soft agar” value in assay [3] (1 nM) is 63%; in assay [3] (10 nM) it was 98%; in assay [3] (100 nM), 99.4%. In assay [4] (ADRB1, 0.025% in diet for 35 days), the “Fold change in vivo, ADRB1” value is −2 fold. Also, the “Fold change in vivo, ANGPTL4” value in assay [4] (ANGPTL4, 0.025% in diet for 35 days) came to 2 fold. In assay [4] (BMP2, 0.025% in diet for 35 days), the “Fold change in vivo, BMP2” value is on record as 3.8 fold. Besides, the “Fold change in vivo, HR” value in assay [4] (HR, 0.025% in diet for 35 days) worked out at 1.5 fold. Besides, in assay [4] (IL1B, 0.025% in diet for 35 days), the “Fold change in vivo, IL1B” value was 5.6 fold. Further, the “Fold change in vivo, ITGA5” value in assay [4] (ITGA5, 0.025% in diet for 35 days) amounted to 1.9 fold. Further, the “Fold change in vivo, LMAN1” value in assay [4] (LMAN1, 0.025% in diet for 35 days) is −4.3 fold. The “Fold change in vivo, MMP14” value in assay [4] (MMP14, 0.025% in diet for 35 days) turned out to be 2.5 fold. The “Fold change in vivo, RhoB” value in assay [4] (RhoB, 0.025% in diet for 35 days) stood at 2 fold. In assay [5], the “activation of PPARγ (luciferase activity)” value was “specifically activates PPARγ”.
